This passage reports Ki results from patent US11033539B2, “Compounds of formulas (VII), (VIII), (IX), (XI), (XII), (XIII), and (XIV) as muscarinic receptor 4(M4) antagonists for treating neurological diseases” (Neurocrine Biosciences, Inc., priority 2015, dated 2021).

Assay [1] has as its target human M1 receptor (Homo sapiens (Human), UniProt P11229). Briefly: Radioligand (tritiated N-methylscopolamine) binding assay, M1. The conditions noted are these: CHO cell membranes expressing human M1; 1.5 nM tritiated N-methylscopolamine; 90 min, 37° C.; read-out: Ki against M1 receptor (Table 21, M1). In outline:
(§1)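 Ki from displacement of 1.5 nM [3H]N-methylscopolamine on membranes of CHO cells expressing each human receptor. Twelve compound concentrations (10 μM to […]), 90 min at 37° C in 50 mM HEPES, 100 mM NaCl, 5 mM MgCl2, 1 mM EDTA, pH 7.4. Bound ligand was captured by PEI-treated glass-fiber filtration and counted.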

In assay [2] the target is human M2 receptor (Homo sapiens (Human), UniProt P08172). Briefly: Radioligand (tritiated N-methylscopolamine) binding assay, M2. The conditions noted are these: CHO cell membranes expressing human M2; 1.5 nM tritiated N-methylscopolamine; 90 min, 37° C.; read-out: Ki against M2 receptor (Table 21, M2). Put shortly: as §1
Sequence of human M2 receptor (P08172 whole entry): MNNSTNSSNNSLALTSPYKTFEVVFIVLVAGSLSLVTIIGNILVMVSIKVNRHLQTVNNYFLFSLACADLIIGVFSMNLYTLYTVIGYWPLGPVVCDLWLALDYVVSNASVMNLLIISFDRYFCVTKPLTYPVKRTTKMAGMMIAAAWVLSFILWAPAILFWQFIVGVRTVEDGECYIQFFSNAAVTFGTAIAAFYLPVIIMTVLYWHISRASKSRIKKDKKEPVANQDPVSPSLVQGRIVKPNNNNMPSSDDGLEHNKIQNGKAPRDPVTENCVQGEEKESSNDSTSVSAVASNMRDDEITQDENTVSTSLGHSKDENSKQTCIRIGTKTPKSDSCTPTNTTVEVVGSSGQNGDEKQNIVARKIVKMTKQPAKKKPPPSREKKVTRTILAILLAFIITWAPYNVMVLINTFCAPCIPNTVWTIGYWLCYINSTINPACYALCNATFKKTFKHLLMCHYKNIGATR
For assay [3], the target named is human M3 receptor (Homo sapiens (Human), UniProt P20309). Briefly: Radioligand (tritiated N-methylscopolamine) binding assay, M3. The conditions noted are these: CHO cell membranes expressing human M3; 1.5 nM tritiated N-methylscopolamine; 90 min, 37° C.; read-out: Ki against M3 receptor (Table 21, M3). The procedure:
(§2) Binding affinity (Ki) of compounds was measured by inhibition of radioligand binding to membranes from CHO cells expressing human M1, M2, M3, M4 and M5 receptors. Membranes were prepared by nitrogen cavitation and differential centrifugation as previously described (Hoare et al., Mol. Pharmacol. 2003 March; 63(3): 751-65). The radioligand employed was tritiated N-methylscopolamine, used at a concentration of 1.5 nM. A dose-response of twelve concentrations of compound was used, ranging from 10 μM to […]. The assay buffer was 50 mM HEPES, 100 mM NaCl, 5 mM MgCl2, 1 mM ethylenediaminetetraacetic acid, pH-adjusted to pH 7.4. Membranes, radioligand and compound were incubated together for 90 minutes at 37° C., in a total volume of 150 μl in a 96-well plate. Receptor-bound radioligand was then collected by harvesting the assay over glass fiber filters pretreated with polyethylenimine to trap the cell membranes, using rapid vacuum filtration. Harvesting and radioactivity counting was conducted as previously described (see, e.g., Hoare et al., Mol. Pharmacol. 2003 63(3):751-65); Erratum at Mol. Pharmacol. 2005 July; 68(1): 260).

Assay [4] addresses human M4 receptor (Homo sapiens (Human), UniProt P08173). Briefly: Radioligand (tritiated N-methylscopolamine) binding assay, M4. The conditions noted are these: Ki against the M4 receptor; membranes from CHO cells expressing human M4; tritiated N-methylscopolamine 1.5 nM; read-out: Ki. In outline: as §1
Assay [5] has as its target human M5 receptor (Homo sapiens (Human), UniProt P08912). The assay is described as follows: Radioligand (tritiated N-methylscopolamine) binding assay, M5. The conditions noted are these: CHO cell membranes expressing human M5; 1.5 nM tritiated N-methylscopolamine; 90 min, 37° C.; read-out: Ki against M5 receptor (Table 21, M5). As to the method:
as §2

Sequence of human M1 receptor (P11229 whole entry): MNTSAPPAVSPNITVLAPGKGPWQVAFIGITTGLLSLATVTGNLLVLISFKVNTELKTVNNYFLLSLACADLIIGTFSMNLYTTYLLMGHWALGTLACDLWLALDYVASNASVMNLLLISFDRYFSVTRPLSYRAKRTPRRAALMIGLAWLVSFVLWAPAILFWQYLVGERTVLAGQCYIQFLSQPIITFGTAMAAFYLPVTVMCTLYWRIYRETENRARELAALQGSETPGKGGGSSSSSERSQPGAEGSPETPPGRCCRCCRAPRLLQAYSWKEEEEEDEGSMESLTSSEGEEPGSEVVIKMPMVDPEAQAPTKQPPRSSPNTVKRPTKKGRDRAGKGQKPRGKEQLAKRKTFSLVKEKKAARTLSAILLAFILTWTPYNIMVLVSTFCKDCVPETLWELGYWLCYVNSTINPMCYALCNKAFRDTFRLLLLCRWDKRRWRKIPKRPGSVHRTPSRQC
Sequence of human M5 receptor (P08912 whole entry): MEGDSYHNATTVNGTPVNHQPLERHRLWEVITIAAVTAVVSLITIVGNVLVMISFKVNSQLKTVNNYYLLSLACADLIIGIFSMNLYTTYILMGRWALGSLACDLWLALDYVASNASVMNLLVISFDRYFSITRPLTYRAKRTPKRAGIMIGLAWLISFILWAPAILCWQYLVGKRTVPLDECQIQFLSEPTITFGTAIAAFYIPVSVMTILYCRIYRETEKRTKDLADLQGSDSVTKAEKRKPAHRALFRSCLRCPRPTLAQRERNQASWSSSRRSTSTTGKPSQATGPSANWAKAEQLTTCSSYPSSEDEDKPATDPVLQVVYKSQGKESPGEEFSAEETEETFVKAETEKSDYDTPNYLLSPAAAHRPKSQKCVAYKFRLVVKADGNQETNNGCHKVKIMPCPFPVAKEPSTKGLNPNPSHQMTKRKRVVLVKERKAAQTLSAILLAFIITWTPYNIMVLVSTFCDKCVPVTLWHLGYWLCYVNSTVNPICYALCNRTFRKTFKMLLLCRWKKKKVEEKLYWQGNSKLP
Sequence of human M4 receptor (P08173 whole entry): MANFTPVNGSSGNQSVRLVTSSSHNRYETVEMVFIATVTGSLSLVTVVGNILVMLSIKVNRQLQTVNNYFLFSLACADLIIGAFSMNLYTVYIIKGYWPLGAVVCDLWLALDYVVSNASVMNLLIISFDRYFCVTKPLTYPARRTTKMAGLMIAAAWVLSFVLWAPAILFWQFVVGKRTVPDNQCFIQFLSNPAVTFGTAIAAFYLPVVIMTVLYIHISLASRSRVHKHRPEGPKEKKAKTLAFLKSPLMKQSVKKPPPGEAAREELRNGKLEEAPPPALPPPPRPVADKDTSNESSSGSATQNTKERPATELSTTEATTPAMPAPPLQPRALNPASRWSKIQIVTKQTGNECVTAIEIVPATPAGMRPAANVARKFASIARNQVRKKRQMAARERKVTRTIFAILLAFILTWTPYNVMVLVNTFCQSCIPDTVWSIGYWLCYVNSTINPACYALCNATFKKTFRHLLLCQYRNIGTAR
Sequence of human M3 receptor (P20309 whole entry): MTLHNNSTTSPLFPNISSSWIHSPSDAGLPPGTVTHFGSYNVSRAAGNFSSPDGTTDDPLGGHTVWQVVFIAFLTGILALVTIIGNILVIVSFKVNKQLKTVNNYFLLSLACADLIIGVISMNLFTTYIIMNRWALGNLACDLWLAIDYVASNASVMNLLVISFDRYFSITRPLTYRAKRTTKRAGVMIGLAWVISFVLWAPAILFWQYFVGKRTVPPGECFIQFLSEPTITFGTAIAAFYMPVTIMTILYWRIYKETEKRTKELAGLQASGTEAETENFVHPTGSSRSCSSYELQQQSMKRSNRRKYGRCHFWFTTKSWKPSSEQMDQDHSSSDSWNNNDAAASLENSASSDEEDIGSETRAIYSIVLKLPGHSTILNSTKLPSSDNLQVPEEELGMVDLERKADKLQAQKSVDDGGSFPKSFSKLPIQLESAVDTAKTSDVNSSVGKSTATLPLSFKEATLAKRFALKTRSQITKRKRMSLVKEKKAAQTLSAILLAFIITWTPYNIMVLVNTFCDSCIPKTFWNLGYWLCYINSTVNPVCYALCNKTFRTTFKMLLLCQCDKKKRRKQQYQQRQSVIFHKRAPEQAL

The term Ki denotes the equilibrium dissociation constant of an inhibitor or competing ligand from its target. Turning to `C[C@H]1CN(c2ccc(F)c(C#N)c2)CCN1C(=O)NCCC1CCN(Cc2ccccc2)CC1` [4-20, (2S)-N-[2-(1-benzylpiperidin-4-yl)ethyl]-4-(3-cyano-4-fluorophenyl)-2-methylpiperazine-1-carboxamide], the Ki in assay [1] was 100 to 1000 nM; in assay [2], 10 to 100 nM; in assay [3] it was over 1000 nM; in assay [4], under 10 nM; in assay [5] it was over 1000 nM.
As for `C[C@H]1CN(c2ccc(OC(F)(F)F)c(C#N)c2)CCN1C(=O)NCCC1CCN(Cc2ccccc2)CC1` [4-21, (2S)-N-[2-(1-benzylpiperidin-4-yl)ethyl]-4-[3-cyano-4-(trifluoromethoxy)phenyl]-2-methylpiperazine-1-carboxamide], the Ki is 100 to 1000 nM in assay [1]; 10 to 100 nM in assay [2]; 100 to 1000 nM in assay [3]; under 10 nM in assay [4]; over 1000 nM in assay [5].
Regarding `C[C@@H]1CN(C(=O)NCCC2CCN(Cc3ccccc3)CC2)CCN1c1ccc(OC(F)(F)F)c(F)c1` [4-22, (3R)-N-[2-(1-benzylpiperidin-4-yl)ethyl]-4-[3-fluoro-4-(trifluoromethoxy)phenyl]-3-methylpiperazine-1-carboxamide], the inhibitory constant (Ki) in assay [1] was over 1000 nM; in assay [2] it was 100 to 1000 nM; in assay [3] it was over 1000 nM; in assay [4], under 10 nM; in assay [5], 100 to 1000 nM.
For the compound `C[C@@H]1CN(c2cc(F)c(F)c(Cl)c2)CCN1C(=O)NCCC1CCN(Cc2ccccc2)CC1` [4-52, (2R)-N-[2-(1-benzylpiperidin-4-yl)ethyl]-4-(3-chloro-4,5-difluorophenyl)-2-methylpiperazine-1-carboxamide], the inhibitory constant (Ki) was 100 to 1000 nM in assay [1]; 10 to 100 nM in assay [2]; 100 to 1000 nM in assay [3]; under 10 nM in assay [4]; over 1000 nM in assay [5].
On to `C[C@H]1CN(c2ccc(OC(F)(F)F)c(F)c2)CCN1C(=O)NCCC1CCN(Cc2ccccc2)CC1` [4-53, (2S)-N-[2-(1-benzylpiperidin-4-yl)ethyl]-4-[3-fluoro-4-(trifluoromethoxy)phenyl]-2-methylpiperazine-1-carboxamide], for which the Ki in assay [1] was 100 to 1000 nM; in assay [2], 10 to 100 nM; in assay [3], 100 to 1000 nM; in assay [4], under 10 nM; in assay [5], 100 to 1000 nM.
Turning to `C[C@@H]1CN(c2cc(F)c(OC(F)(F)F)c(F)c2)CCN1C(=O)NCCC1CCN(Cc2ccccc2)CC1` [4-60, (2R)-N-[2-(1-benzylpiperidin-4-yl)ethyl]-4-[3,5-difluoro-4-(trifluoromethoxy)phenyl]-2-methylpiperazine-1-carboxamide], the Ki in assay [1] was 100 to 1000 nM; in assay [2], 10 to 100 nM; in assay [3], 100 to 1000 nM; in assay [4] it was under 10 nM; in assay [5], 100 to 1000 nM.
On to `C[C@@H]1CN(c2cccc(C#N)c2)CCN1C(=O)NCCC1CCN(Cc2ccccc2)CC1` [4-68, (2R)-N-[2-(1-benzylpiperidin-4-yl)ethyl]-4-(3-cyanophenyl)-2-methylpiperazine-1-carboxamide], for which the inhibitory constant (Ki) in assay [1] was 100 to 1000 nM; in assay [2], 100 to 1000 nM; in assay [3], over 1000 nM; in assay [4], under 10 nM; in assay [5], over 1000 nM.
Regarding `C[C@H]1CN(C(=O)NCCC2CCN(Cc3ccccc3)CC2)CCN1c1cc(F)c(F)c(F)c1` [4-71, (3S)-N-[2-(1-benzylpiperidin-4-yl)ethyl]-3-methyl-4-(3,4,5-trifluorophenyl)piperazine-1-carboxamide], the Ki was 100 to 1000 nM in assay [1]; 100 to 1000 nM in assay [2]; over 1000 nM in assay [3]; under 10 nM in assay [4]; over 1000 nM in assay [5].
Take `C[C@@H]1CN(c2ccc(C(F)(F)F)cc2F)CCN1C(=O)NCCC1CCN(Cc2ccccc2)CC1` [4-73, (2R)-N-[2-(1-benzylpiperidin-4-yl)ethyl]-4-[2-fluoro-4-(trifluoromethyl)phenyl]-2-methylpiperazine-1-carboxamide]: the Ki is 100 to 1000 nM in assay [1]; 10 to 100 nM in assay [2]; 100 to 1000 nM in assay [3]; under 10 nM in assay [4]; over 1000 nM in assay [5].
Take `O=C(NCCC1CCN(Cc2ccccc2)CC1)N1CCN(c2ccc(C(F)(F)F)cc2)CC1` [4-76, N-[2-(1-benzylpiperidin-4-yl)ethyl]-4-[4-(trifluoromethyl)phenyl]piperazine-1-carboxamide]: the Ki in assay [1] was over 1000 nM; in assay [2], 100 to 1000 nM; in assay [3], over 1000 nM; in assay [4], under 10 nM; in assay [5], over 1000 nM.
Regarding `O=C(NCCC1CCN(Cc2ccccc2)CC1)N1CCN(c2ccc(C(F)(F)F)cn2)CC1` [4-77, N-[2-(1-benzylpiperidin-4-yl)ethyl]-4-[5-(trifluoromethyl)pyridin-2-yl]piperazine-1-carboxamide], the Ki was 100 to 1000 nM in assay [1]; 10 to 100 nM in assay [2]; over 1000 nM in assay [3]; under 10 nM in assay [4]; over 1000 nM in assay [5].
`C[C@@H]1CN(c2cnc(C(F)(F)F)nc2)CCN1C(=O)NCCC1CCN(Cc2ccccc2)CC1` [4-79, (2R)-N-[2-(1-benzylpiperidin-4-yl)ethyl]-2-methyl-4-[2-(trifluoromethyl)pyrimidin-5-yl]piperazine-1-carboxamide]: the inhibition constant (Ki) was 100 to 1000 nM in assay [1]; 10 to 100 nM in assay [2]; over 1000 nM in assay [3]; under 10 nM in assay [4]; over 1000 nM in assay [5].
In the case of `C[C@@H]1CN(c2cnc(C#N)nc2)CCN1C(=O)NCCC1CCN(Cc2ccccc2)CC1` [4-80, (2R)-N-[2-(1-benzylpiperidin-4-yl)ethyl]-4-(2-cyanopyrimidin-5-yl)-2-methylpiperazine-1-carboxamide], the Ki in assay [1] is 100 to 1000 nM; in assay [2], 100 to 1000 nM; in assay [3] it was over 1000 nM; in assay [4], under 10 nM; in assay [5], over 1000 nM.
Turning to `C[C@@H]1CN(c2ncc(C#N)c(N)n2)CCN1C(=O)NCCC1CCN(Cc2ccccc2)CC1` [5-1, (2R)-4-(4-amino-5-cyanopyrimidin-2-yl)-N-[2-(1-benzylpiperidin-4-yl)ethyl]-2-methylpiperazine-1-carboxamide], the Ki is over 1000 nM in assay [1]; 100 to 1000 nM in assay [2]; over 1000 nM in assay [3]; under 10 nM in assay [4]; over 1000 nM in assay [5].
Take `C[C@@H]1CN(c2nc(Cl)cc(C#N)n2)CCN1C(=O)NCCC1CCN(Cc2ccccc2)CC1` [5-5, (2R)-N-[2-(1-benzylpiperidin-4-yl)ethyl]-4-(4-chloro-6-cyanopyrimidin-2-yl)-2-methylpiperazine-1-carboxamide]: the Ki is 100 to 1000 nM in assay [1]; 100 to 1000 nM in assay [2]; over 1000 nM in assay [3]; under 10 nM in assay [4]; over 1000 nM in assay [5].
With `C[C@@H]1CN(c2nccc(C(F)(F)F)n2)CCN1C(=O)NCCC1CCN(Cc2ccccc2)CC1` [5-8, (2R)-N-[2-(1-benzylpiperidin-4-yl)ethyl]-2-methyl-4-[4-(trifluoromethyl)pyrimidin-2-yl]piperazine-1-carboxamide], the Ki in assay [1] was over 1000 nM; in assay [2] it was 10 to 100 nM; in assay [3], 100 to 1000 nM; in assay [4], under 10 nM; in assay [5] it was over 1000 nM.
As to `COc1nc(N2C[C@@H](C)N(C(=O)NCCC3CCN(Cc4ccccc4)CC3)[C@@H](C)C2)ncc1C#N` [5-17, (2R,6S)-N-[2-(1-benzylpiperidin-4-yl)ethyl]-4-(5-cyano-4-methoxypyrimidin-2-yl)-2,6-dimethylpiperazine-1-carboxamide], the inhibition constant (Ki) in assay [1] was 100 to 1000 nM; in assay [2], 100 to 1000 nM; in assay [3], 100 to 1000 nM; in assay [4] it was under 10 nM; in assay [5], over 1000 nM.
On to `C[C@@H]1CN(c2ncc(Cl)cn2)C[C@H](C)N1C(=O)NCCC1CCN(Cc2ccccc2)CC1` [5-18, (2S,6R)-N-[2-(1-benzylpiperidin-4-yl)ethyl]-4-(5-chloropyrimidin-2-yl)-2,6-dimethylpiperazine-1-carboxamide], for which the Ki in assay [1] is over 1000 nM; in assay [2], 10 to 100 nM; in assay [3] it was over 1000 nM; in assay [4], under 10 nM; in assay [5], over 1000 nM.
